Where two headings read alike, the source gives them in different places.
Experiments:
[1] = test system: guinea pig distal colon longitudinal muscles; conditions: cited from earlier work; for pA2 value of the antagonistic action on the relaxing action of NECA: electrical stimulation
[2] = test system: guinea pig distal colon longitudinal muscles; conditions: KCl + tetrodotoxin, cited from earlier work
[3] = Urine volume in rat (Test Example 2); type: in vivo; conditions: rats, oral, Table 4
Experimental: (§1) SD IGS rats (6-weeks-old, from Charles River) were placed in cages (3 animals/cage) and preliminarily allowed food and water ad libitum and raised for 1 week. On the day of the experiment, their weight was measured, a water-absorbing sheet was placed below each cage, and the animals were fasted but allowed water ad libitum throughout the experiment. Three hours after fasting was initiated, the fecal pellets were recovered from each cage and observed for abnormality before the experiment, and then the compound suspended or dissolved in 0.5% (W/V) methyl cellulose (MC) was orally administered into each rat in a dose of 5 ml/kg. On one hand, 0.5% (W/V) MC only was orally given to the control group. After administering the compound, the rats were returned to the cage provided with a new water-absorbing sheet of known weight, and 180 minutes after the administration, the fecal pellets on the water-absorbing sheet were recovered from each cage, and the external appearance was observed, and the number of fecal pellets was counted. […] After the fecal pellets were recovered, the water-absorbing sheet was weighed, and the weight determined by subtracting the initial weight of the water-adsorbing sheet from the weight after the experiment was regarded as the volume of urine and expressed as the volume of urine per 100 g of the body weight (Table 4).

[4] = test system: SD IGS rats; test: Defecation-promoting action in rat, number of fecal pellets (Test Example 2); type: in vivo; conditions: for The number of fecal pellets/3 rats: Test Example 2
Experimental: SD IGS rats (6-weeks-old, from Charles River) were placed in cages (3 animals/cage) and preliminarily allowed food and water ad libitum and raised for 1 week. On the day of the experiment, their weight was measured, a water-absorbing sheet was placed below each cage, and the animals were fasted but allowed water ad libitum throughout the experiment. Three hours after fasting was initiated, the fecal pellets were recovered from each cage and observed for abnormality before the experiment, and then the compound suspended or dissolved in 0.5% (W/V) methyl cellulose (MC) was orally administered into each rat in a dose of 5 ml/kg. On one hand, 0.5% (W/V) MC only was orally given to the control group. After administering the compound, the rats were returned to the cage provided with a new water-absorbing sheet of known weight, and 180 minutes after the administration, the fecal pellets on the water-absorbing sheet were recovered from each cage, and the external appearance was observed, and the number of fecal pellets was counted. The number of fecal pellets is expressed per each cage (Table 4). After the fecal pellets were recovered, the water-absorbing sheet was weighed, and the weight determined by subtracting the initial weight of the water-adsorbing sheet from the weight after the experiment was regarded as the volume of urine and expressed as the volume of urine per 100 g of the body weight (Table 4).

[5] = test system: guinea pig colon longitudinal muscles; conditions: 100 nM; cited from earlier work
[6] = test system: rat distal colon longitudinal muscles; conditions: cited from earlier work; for Relaxation of Carbachol-contracted muscles: agonist added at 0.1 to 30 μM
[7] = test system: SD IGS rats; test: Contribution of inhibition of adenosine A2b receptor to defecation-promoting action (Test Example 3); type: in vivo, rat
Experimental: as §1, with “4). […]” for “4).”

[8] = test system: SD IGS rats; test: Evaluation of defecation-promoting action (Table 10); type: in vivo, rat; conditions: 180 minutes, n = 6 cages/group
Experimental: That is, SD IGS rats (6-to 7-weeks-old, from Charles River) were placed in cages (3 animals/cage) and preliminarily allowed food and water ad libitum and raised for 1 week. On the day of the experiment, their weight was measured, a water-absorbing sheet was placed below each cage, and the animals were fasted but allowed water ad libitum throughout the experiment. Thee hours after fasting was initiated, the fecal pellets were recovered from each cage and observed for abnormality before the experiment, and then the compound suspended in 0.5% (w/v) methyl cellulose (MC) was orally administered in a dose of 5 ml/kg. On one hand, 0.5% (w/v) MC only was orally given to the control group. After administration of the compound, the rats were returned to the cage provided with a new water-absorbing sheet, and 180 minutes after the administration, the fecal pellets on the water-absorbing sheet were recovered from each cage, and the external appearance was observed, and the number of fecal pellets was counted. The number of fecal pellets is expressed per each cage.

## Cn1c(=O)c2[nH]c(-c3ccccc3)nc2n(C)c1=O [Example 8-PT, 8-phenyltheophylline]
[1]
  pA2 value of the antagonistic action on the relaxing action of NECA: 6.5
[2]; 10 μM
  pA2 value upon inhibition of the action of NECA: 5.7

## Nc1ncc(-c2ccncc2)c(-c2ccco2)n1 [Compound I, 2-Amino-4-(2-furyl)-5-(4-pyridyl)pyrimidine]
[3]
  Diuretic action (in words): weaker diuretic action than the A1-selective antagonist KW3902
[4]; rats, oral, Table 4
  Defecation-promoting action (in words): evidently higher defecation-promoting action

## CCNC(=O)[C@H]1O[C@@H](n2cnc3c(N)ncnc32)[C@H](O)[C@@H]1O [NECA, 5′-N-ethylcarboxyamide adenosine]
[5]
  Relaxing action on contraction stimulated by acetylcholine: did not exhibit a relaxing action
[6]
  Relaxation of Carbachol-contracted muscles: relaxation was observed
[1]
  Relaxation of muscles contracted by electrical stimulation: relaxation was observed

## CCCn1c(=O)c2[nH]c(C34CC5CC(CC3C5)C4)nc2n(CCC)c1=O [KW3902]
[3]
  Diuretic action (in words): stronger diuretic action than Compound I
[7]; KW3902 1 mg/kg together with KW6002 1 mg/kg, 180 minutes
  The number of fecal pellets/3 rats: 18.25 ± 1.49 fecal pellets/3 rats
[7]; KW3902 1 mg/kg without KW6002, 180 minutes
  The number of fecal pellets/3 rats: 9.00 ± 1.08 fecal pellets/3 rats
[4]; 0.3 mg/kg oral, 180 minutes after administration
  The number of fecal pellets/3 rats: 10.67 ± 2.08 fecal pellets/3 rats
[4]; 1 mg/kg oral, 180 minutes
  The number of fecal pellets/3 rats: 14.50 ± 1.18 fecal pellets/3 rats
[4]; 3 mg/kg oral, 180 minutes
  The number of fecal pellets/3 rats: 12.83 ± 1.66 fecal pellets/3 rats

## Nc1nc(N)c(-c2ccncc2)c(-c2cccc(F)c2)n1 [Example 1, 6-(3-Flurophenyl)-5-(4-pyridyl)-2,4-pyrimidine diamine]
[8]; 3 mg/kg oral
  The number of fecal pellets/3 rats: 14.83 ± 1.82 fecal pellets/3 rats
[8]; 10 mg/kg oral
  The number of fecal pellets/3 rats: 23.17 ± 2.94 fecal pellets/3 rats

## OC[C@H]1O[C@@H](n2cnc3c(NC4CCCC4)ncnc32)[C@H](O)[C@@H]1O [CPA]
[5]
  Relaxing action on contraction stimulated by acetylcholine: did not exhibit a relaxing action
[6]
  Relaxation of Carbachol-contracted muscles: relaxation was observed
[1]
  Relaxation of muscles contracted by electrical stimulation: relaxation was observed

## CCNC(=O)[C@H]1O[C@@H](n2cnc3c(N)nc(NCCc4ccc(CCC(=O)O)cc4)nc32)[C@H](O)[C@@H]1O [CGS21680, 2-p-[2-carboxyethyl]phenetylamino-5′-N-ethylarboxyamide adenosine]
[6]; 10 μM
  Antagonism of the relaxing action of NECA and CPA: not antagonized
[1]
  Relaxation of muscles contracted by electrical stimulation: very weak
[2]; 1 μM
  Relaxing action: did not act

## CCCn1c(=O)c2[nH]c(C3CCCC3)nc2n(CCC)c1=O [DPCPX]
[6]; 1 μM
  Antagonism of the relaxing action of NECA and CPA: antagonized
[1]
  pA2 value of the antagonistic action on the relaxing action of NECA: 8.8
[2]; 1 nM
  Antagonistic action on the relaxing action: did not show an antagonistic action
[2]; 10 nM
  Antagonistic action on the relaxing action of NECA and CPA: inhibited the relaxing action of NECA and CPA
[2]
  pA2 value against CPA: 7.0
  pA2 value against NECA: 6.6

Source: US7189717B2, “Medicinal compositions promoting bowel movement” (Eisai Co., Ltd., priority 2000, dated 2007)
